Measured values: paper PMC2751816, “Functional, Non-Clonal IgM^a-Restricted B Cell Receptor Interactions with the HIV-1 Envelope gp41 Membrane Proximal External Region” (PLoS ONE, 2009)
“Also recorded” adds a separate entry of the source.

Columns and labels:
[1] = system: naïve splenic BALB/c B cells; test: Flow cytometry: APC-labeled tetramer staining of BALB/c splenic B cells; format: cell-based, mouse (BALB/c)
Procedure: (§1) N-biotinylated, linker/spacer-containing peptides used to make tetramers are detailed in Table S4 and Fig. 7A. Peptides were synthesized and purified using reverse-phase HPLC (Primm Biotechnology). To produce tetramerized forms of each peptides, 200 µM peptide and 6 µM APC-labeled streptavadin (SA) were combined at equal volumes, and mixtures were incubated at 4°C for 4 h. Unbound peptide was removed from peptide-APC complexes by centrifugal filtration using an Amicon Centriprep YM30 column (Millipore Corporation). Purified tetramer preparations were determined using the Micro BSA protein assay kit (Pierce Biotechnology).
FACS staining of single cell suspensions (≥2×10^6) was conducted using pre-mixed combinations of fluorochrome-labeled Abs and APC-conjugated B cell tetramers at empirically-determined optimal concentrations. All Abs were from BD unless otherwise stated. Primary antibodies used were: PerCP anti-B220, FITC anti-IgD, FITC, PE or PE-Cy7 anti-IgM, PE anti-CD5, FITC anti-CD11b, PE-Cy7 anti-CD19, FITC anti-CD21, PE-Cy7 anti-CD23 (eBiosciences), and PE-Cy7 anti-CD93 (eBiosciences). Other reagents included biotinylated Abs against dump channel markers: Thy1 (Abcam), F4/80 (Abcam), CD11c, Gr-1, TER-119, and NK-1.1, secondary staining SA-Texas Red conjugate; v-amine live/dead violet dye (Molecular Probes), and Fc block (anti-CD16/32).
Staining was conducted at 4°C in several sequential steps in FACS staining buffer (1X PBS with 2% FCS, 0.1% NaN3), washing twice between steps. Cells were first incubated with v-amine live/dead dye for 15 min, then stained with APC-labeled tetramers for 30 min (and in some experiments, cold tetramer was incubated at 10 fold molar excess for 1 h, prior to staining with APC-labeled tetramers). Cells were then stained with Fc block, followed by incubation with combinations of primary Abs, and secondary staining with SA-Texas Red, each for 30 min. Data (≥2.5×10^5 events/sample) were acquired using an LSRII flow cytometer and Cell Quest software (BD Immunocytometry systems). FACS Analysis was performed using FlowJo software (Tree Star). For analysis, cells were gated in the following order: single cells were gated based on fsc height vs. fsc area+ssc height vs. ssc profiles, lymphocytes were gated on fsc and ssc profile, residual dead cells were excluded by negative gating with v-amine live/dead dye, and irrelevant non-B cells were excluded by negative gating with dump markers.

[2] = system: splenic B cells, C57BL/6 congenic (IgH^a); test: Flow cytometry: tetramer staining of splenic B cells from C57BL/6 congenic (IgH^a) mice; format: cell-based, mouse (B6Igh^a); conditions: C57BL/6 mice homozygous for Igh^a; Fig. 5
Procedure: as §1
Female C57BL/6, BALB/c, B6Igh^a, and CB17 (BALBc Igh^b) inbred mouse strains (8–12 wks of age) were purchased from Charles River Laboratories. All mice were housed in the Duke University Animal Facility in a pathogen-free environment with 12 h light/dark cycles at 20–25°C under AALAC guidelines and in accordance with all Institutional Animal Care and Use Committee and Duke University Institutional Biosafety Committee-approved animal protocols. […]
FACS staining of single cell suspensions (≥2×10^6) was conducted using pre-mixed combinations of fluorochrome-labeled Abs and APC-conjugated B cell tetramers at empirically-determined optimal concentrations. […]

[3] = system: surface Ig on BALB/c splenic B cells; test: Microscopy of BCR cap formation (co-capping); format: cell-based, mouse (BALB/c); conditions: anti-Ig stimulation, Fig. 4F
Procedure: Purified naïve splenic B cells were incubated on ice for 30 min with Alexa 488-labeled wheat germ agglutinin (Invitrogen) and 10 µg/ml R-PE-labeled goat anti-mouse IgM+IgG (H+L) F(ab)2 and APC-labeled gp41 MPER. After extensive washing, cells were stimulated for indicated times. Images were acquired with a Nikon TE2000-E2 inverted microscope employing a 40X magnification lens from a CoolSNAPPHQ2 monochrome camera.

[4] = system: expressed IgM^+ VH repertoire of splenic BALB/c B cells; test: VH family usage in gp41 MPER tetramer-sorted IgM^+ B cells (5' RACE); design: species or system mouse (BALB/c); conditions: compared to total IgM^+ BALB/c B cells; Fisher Exact test; two sorts; Fig. 6B
From the text: For sorting of gp41 MPER tetramer-binding B cells, single cell splenic suspensions were obtained from 5–10 naïve BALB/c 8 wk females, pooled, and purified by negative depletion with CD43 MACS beads (Miltenyi Biotechnology). The resulting B cell enriched fraction was stained as described in the flow cytometry methods section and sorted into B220^+ CD19^+ gp41 MPER^+ fractions using a BDFACS Aria. Sorting gates for the gp41 MPER^+ fractions were set to include all events greater than baseline staining without tetramer. Purity of sorted populations was verified by a 1000-event post-sort step.
For 5′ RACE analysis, gp41 MPER^+ fractions (or purified, unsorted splenic B cells) were spun down and washed, immediately after sorting. DNAse-free RNA was extracted and concentrated using RNEasy Mini and Micro kits, respectively (Qiagen) and quantitated using a NanoDrop ND-1000 spectrophotometer (Fisher). cDNA was synthesized by oligo-dT priming using SuperScript III (Invitrogen) and IgM-specific 5′ RACE products were amplified with the First Choice RLM-RACE PCR kit (Ambion), using mouse HC̃-specific primers in combination with 5′ RACE primers, according to the manufacturer's instructions. PCR products were cloned into pGEM-T Easy vectors (Promega), transformed in GC5 competent cells (CLP), and transformant DNA was isolated, sequenced and analyzed in Ig Blast.

QQEKNEQELLELDKWASLWN [gp41 MPER tetramer, (residues 659–678 of the HIV-1 envelope)]
MFI binding pattern (in words) ([1]; BALB/c B cell subsets, Fig. 1A, 2A, Table S1): the majority of MPER-reactive B cells within BALB/c subsets shifted as “low avidity” shoulders, with an additional, small fraction binding as a “higher-avidity” MFI tail | gp41 MPER reactivity among B cell subsets (in words) ([1]; BALB/c splenic and peritoneal subsets, MFI and frequency, Fig. 2, Tables S1, S2): gp41 MPER reactivity was strongest in marginal zone (MZ) and peritoneal B1 B cell subsets of BALB/c mice; also recorded: exhibited lower levels of gp41 MPER binding | fraction of all B cells labeled at saturating tetramer ([1]; BALB/c splenocytes, 10 µg/10^6 splenocytes, Fig. 1B): ~25% | tetramer amount giving saturating binding ([1]; BALB/c splenocytes, Fig. 1B): 10 µg/10^6 splenocytes | tetramer amount with highest gp41 MPER/scrambled gp41 MPER binding ratio ([1]; BALB/c splenocytes, sub-saturating, Fig. 1B): 100 ng/10^6 splenocytes | frequency of binding to BALB/c B cells ([1]; high-frequency binding, 100 ng tetramer/10^6 cells): ≥ 5% | gp41 MPER binding over wide tetramer concentration range (in words) ([1]; serial dilutions, MFI and fraction of labeled B cells, Fig. 1B): Elevated gp41 MPER binding to BALB/c cells, relative to C57BL/6 B cells, was observed at all concentrations of tetramers carrying MPER peptide; also recorded: substantially elevated relative to the scrambled peptide controls | percentage of tetramer-reactive B cells ([1]; total splenic B cells (CD19^+), naïve BALB/c, APC tetramer 100 ng/10^6 splenocytes, above background without tetramer, Fig. 1A representative histogram): ~7% | gp41 MPER binding in congenic mice (in words) [2]: exhibited gp41 MPER binding identical to BALB/c animals | co-capping with surface Ig (in words) [3]: co-capped with surface Ig in BALB/c splenic B cells | VH family usage in gp41 MPER-reactive B cells (in words) [4]: most VH families were utilized at statistically comparable levels in gp41 MPER-reactive B cells, with the exception of two overutilized VH families: 36–60 and 7183
